In patent US9828375B2, “4-position substituted pyrazolopyrimidine derivative, and use thereof in drug preparation” (Guangxi Wuzhou Pharmaceuticals (Group) Co., Ltd., priority 2012, dated 2017):

Experiments:
Assay type in all cases: biochemical
FLT1 = FLT1 (Homo sapiens, UniProt P17948); assay: Kinase inhibition activity test, isotope labeling: FLT1; settings: ATP 200 μM; read-out: FLT1 IC50 value (inhibitory activity value)
Experimental: (§1) The purpose of this experiment was to test the inhibitory activity of the compound of the invention for in vitro kinase with the isotope labeling method (the γ phosphate group on ATP was labeled). In this experiment, the in vitro activity inhibition of such kinases as FLT3, VEGFR2, FLT1, FLT4, RET, c-RAF, B-RAF, c-KIT, PDGFα, PDGFβ, FGFR2, FGFR1, EphA2, EphB2, SRC, ABL, ALK and Met was tested respectively. Staurosporine was reference molecule (or referred to as positive control). The kinase inhibition activity of the test compound was expressed by half-inhibitory concentration (IC50) or the kinase activity inhibition rate of the test compound at a concentration of 10 μM. The IC50 value could be obtained by calculating the kinase activity inhibition rate of the test compound at different concentrations.
(§2) 20 mM 3-(N-morpholinyl)propanesulfonic acid (MOPS); 1 mM ethylenediaminetetraacetic acid (EDTA), 0.01% Brij 35 (Brij-35), 5% glycerol, 0.1% mercaptoethanol, 1 mg/mL bovine serum albumin (BSA), 10 mM manganous dichloride solution (MnCl2), 0.1 mg/mL glutamic acid/tyrosine (4:1) polypeptide (poly(Glu, Tyr)4:1), 50 μM EAIYAAPFAKKK (substrate of FLT3), 0.33 mg/mL myelin basic protein (substrate of VEGFR2), 250 μM KKKSPGEYVNIEFG (substrate of FLT1(h)), 500 μM GGEEEEYFELVKKKK (substrate of FLT4(h)), 250 μM KKKSPGEYVNIEFG (substrate of RET), 0.66 mg/mL myelin basic protein (substrate of C-RAF), 250 μM GGMEDIYFEFMGGKKK (substrate of c-Kit), 250 μM GGMEDIYFEFMGGKKK (substrate of PDGFα), 250 μM KKKSPGEYVNIEFG (substrate of FGFR1), […] GGEEEEYFELVKKKK (substrate of SRC), 50 μM EAIYAAPFAKKK (substrate of ABL), 250 μM KKKSPGEYVNIEFG (substrate of ALK), 250 μM KKKSPGEYVNIEFG (substrate of Met(h)), 10 mM magnesium acetate and γ-^33 P-ATP solution, stop buffer (3% phosphate buffer), washing buffer (75 mM phosphate solution), methanol, Filtermat A membrane, FLT3, VEGFR2, FLT3, VEGFR2, FLT1, FLT4, RET, c-RAF, B-RAF, c-KIT, PDGFRα, PDGFRβ, FGFR2, FGFR1, EphA2, EphB2, SRC, ABL, ALK, Met and other kinases, and the test compounds.
(§3) Buffers (8 mM MOPS with pH value of 7.0, 0.2 mM EDTA and 10 mM MnCl2), (5-10 mU) kinases to be tested (FLT3, VEGFR2, FLT1, FLT4, RET, c-RAF, B-RAF, c-KIT, PDGFRα, PDGFRβ, FGFR2, FGFR1, EphA2, EphB2, SRC, ABL, ALK and Met), substrates of kinases to be tested (refer to experimental materials), 10 mM magnesium acetate and γ-^33 P-ATP solution, and test compounds at different concentrations were added to a reaction tube orderly. […] Reaction was terminated with 5 μL 3% phosphate buffer finally, and 10 μL reaction solution was titrated to the Filtermat A membrane; solution was washed for 3 times with 75 mM phosphate solution with each time lasting 5 minutes, and then washed once with methanol. […]

FLT4 = FLT4 (Homo sapiens, UniProt P35916); assay: Kinase inhibition activity test, isotope labeling: FLT4; settings: ATP 200 μM; read-out: FLT4 IC50 value (inhibitory activity value)
Experimental: as §1, §2, §3

RET = RET (Homo sapiens, UniProt P07949); assay: Kinase inhibition activity test, isotope labeling: RET; settings: ATP 70 μM; read-out: RET IC50 value (inhibitory activity value)
Experimental: as §1, §2, §3

FLT1, sequence (P17948 27-1338): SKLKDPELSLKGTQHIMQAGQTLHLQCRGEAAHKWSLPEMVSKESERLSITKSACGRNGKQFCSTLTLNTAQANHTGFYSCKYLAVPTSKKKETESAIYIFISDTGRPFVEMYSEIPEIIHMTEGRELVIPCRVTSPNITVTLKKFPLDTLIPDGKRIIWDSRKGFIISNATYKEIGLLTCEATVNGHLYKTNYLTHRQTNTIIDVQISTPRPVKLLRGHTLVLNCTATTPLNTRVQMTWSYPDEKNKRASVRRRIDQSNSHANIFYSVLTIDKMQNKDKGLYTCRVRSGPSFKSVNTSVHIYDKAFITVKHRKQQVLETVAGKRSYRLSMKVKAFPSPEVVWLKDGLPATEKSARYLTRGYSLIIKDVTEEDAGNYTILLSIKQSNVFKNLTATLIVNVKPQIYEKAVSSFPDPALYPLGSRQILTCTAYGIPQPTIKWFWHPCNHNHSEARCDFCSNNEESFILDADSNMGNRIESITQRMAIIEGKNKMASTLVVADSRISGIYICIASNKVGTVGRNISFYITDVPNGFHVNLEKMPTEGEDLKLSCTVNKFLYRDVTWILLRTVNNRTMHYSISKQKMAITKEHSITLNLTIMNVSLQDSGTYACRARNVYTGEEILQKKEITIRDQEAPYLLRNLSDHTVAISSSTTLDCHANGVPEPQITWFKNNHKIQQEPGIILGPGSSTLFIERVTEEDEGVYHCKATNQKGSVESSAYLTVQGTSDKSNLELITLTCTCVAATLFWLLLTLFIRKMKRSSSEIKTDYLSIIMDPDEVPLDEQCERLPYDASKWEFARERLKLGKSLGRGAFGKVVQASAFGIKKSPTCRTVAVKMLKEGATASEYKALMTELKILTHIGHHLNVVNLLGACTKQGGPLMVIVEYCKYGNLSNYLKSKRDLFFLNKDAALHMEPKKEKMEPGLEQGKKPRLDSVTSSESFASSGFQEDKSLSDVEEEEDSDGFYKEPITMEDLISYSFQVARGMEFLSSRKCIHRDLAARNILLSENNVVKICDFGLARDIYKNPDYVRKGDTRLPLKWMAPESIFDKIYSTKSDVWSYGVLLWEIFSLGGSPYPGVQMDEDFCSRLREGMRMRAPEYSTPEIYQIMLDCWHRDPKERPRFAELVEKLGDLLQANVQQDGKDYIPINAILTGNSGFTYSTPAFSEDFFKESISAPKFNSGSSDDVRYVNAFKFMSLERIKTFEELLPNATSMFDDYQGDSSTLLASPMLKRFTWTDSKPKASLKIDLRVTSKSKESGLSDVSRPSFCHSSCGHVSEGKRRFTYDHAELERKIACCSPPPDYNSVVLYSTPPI
FLT4, sequence (P35916 25-1363): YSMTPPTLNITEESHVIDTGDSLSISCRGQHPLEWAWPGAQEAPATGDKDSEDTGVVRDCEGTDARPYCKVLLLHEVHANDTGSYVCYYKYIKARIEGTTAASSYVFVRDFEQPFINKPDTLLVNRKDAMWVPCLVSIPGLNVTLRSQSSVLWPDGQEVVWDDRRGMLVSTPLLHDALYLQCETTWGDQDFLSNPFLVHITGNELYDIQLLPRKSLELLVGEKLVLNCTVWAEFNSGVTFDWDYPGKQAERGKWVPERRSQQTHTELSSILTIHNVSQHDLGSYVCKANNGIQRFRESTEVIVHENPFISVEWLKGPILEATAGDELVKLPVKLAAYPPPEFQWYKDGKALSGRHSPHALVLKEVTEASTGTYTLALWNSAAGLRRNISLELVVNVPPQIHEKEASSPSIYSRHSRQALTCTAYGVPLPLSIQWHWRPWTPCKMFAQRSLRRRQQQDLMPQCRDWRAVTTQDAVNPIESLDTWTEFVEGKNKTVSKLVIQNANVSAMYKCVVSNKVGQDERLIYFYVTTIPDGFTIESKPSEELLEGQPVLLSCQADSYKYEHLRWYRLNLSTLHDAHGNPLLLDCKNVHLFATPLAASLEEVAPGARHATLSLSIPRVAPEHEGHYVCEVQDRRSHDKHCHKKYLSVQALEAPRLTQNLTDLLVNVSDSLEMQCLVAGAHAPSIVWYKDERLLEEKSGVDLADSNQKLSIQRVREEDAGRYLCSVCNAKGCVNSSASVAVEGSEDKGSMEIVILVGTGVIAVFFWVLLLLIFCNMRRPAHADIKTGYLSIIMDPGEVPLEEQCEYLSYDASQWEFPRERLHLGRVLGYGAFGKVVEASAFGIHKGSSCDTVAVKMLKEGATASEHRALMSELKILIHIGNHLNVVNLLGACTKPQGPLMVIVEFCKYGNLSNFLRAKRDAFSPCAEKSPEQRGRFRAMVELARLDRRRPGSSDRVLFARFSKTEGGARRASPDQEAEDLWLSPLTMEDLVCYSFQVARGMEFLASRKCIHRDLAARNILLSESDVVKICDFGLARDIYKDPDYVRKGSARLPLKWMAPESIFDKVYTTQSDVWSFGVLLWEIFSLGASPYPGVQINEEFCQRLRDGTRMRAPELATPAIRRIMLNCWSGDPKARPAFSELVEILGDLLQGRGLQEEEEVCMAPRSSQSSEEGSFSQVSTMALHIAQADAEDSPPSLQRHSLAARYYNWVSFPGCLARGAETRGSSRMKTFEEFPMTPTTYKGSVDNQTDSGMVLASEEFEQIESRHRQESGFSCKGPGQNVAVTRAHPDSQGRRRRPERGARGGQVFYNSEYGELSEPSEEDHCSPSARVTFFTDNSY
RET, sequence (P07949 29-1114): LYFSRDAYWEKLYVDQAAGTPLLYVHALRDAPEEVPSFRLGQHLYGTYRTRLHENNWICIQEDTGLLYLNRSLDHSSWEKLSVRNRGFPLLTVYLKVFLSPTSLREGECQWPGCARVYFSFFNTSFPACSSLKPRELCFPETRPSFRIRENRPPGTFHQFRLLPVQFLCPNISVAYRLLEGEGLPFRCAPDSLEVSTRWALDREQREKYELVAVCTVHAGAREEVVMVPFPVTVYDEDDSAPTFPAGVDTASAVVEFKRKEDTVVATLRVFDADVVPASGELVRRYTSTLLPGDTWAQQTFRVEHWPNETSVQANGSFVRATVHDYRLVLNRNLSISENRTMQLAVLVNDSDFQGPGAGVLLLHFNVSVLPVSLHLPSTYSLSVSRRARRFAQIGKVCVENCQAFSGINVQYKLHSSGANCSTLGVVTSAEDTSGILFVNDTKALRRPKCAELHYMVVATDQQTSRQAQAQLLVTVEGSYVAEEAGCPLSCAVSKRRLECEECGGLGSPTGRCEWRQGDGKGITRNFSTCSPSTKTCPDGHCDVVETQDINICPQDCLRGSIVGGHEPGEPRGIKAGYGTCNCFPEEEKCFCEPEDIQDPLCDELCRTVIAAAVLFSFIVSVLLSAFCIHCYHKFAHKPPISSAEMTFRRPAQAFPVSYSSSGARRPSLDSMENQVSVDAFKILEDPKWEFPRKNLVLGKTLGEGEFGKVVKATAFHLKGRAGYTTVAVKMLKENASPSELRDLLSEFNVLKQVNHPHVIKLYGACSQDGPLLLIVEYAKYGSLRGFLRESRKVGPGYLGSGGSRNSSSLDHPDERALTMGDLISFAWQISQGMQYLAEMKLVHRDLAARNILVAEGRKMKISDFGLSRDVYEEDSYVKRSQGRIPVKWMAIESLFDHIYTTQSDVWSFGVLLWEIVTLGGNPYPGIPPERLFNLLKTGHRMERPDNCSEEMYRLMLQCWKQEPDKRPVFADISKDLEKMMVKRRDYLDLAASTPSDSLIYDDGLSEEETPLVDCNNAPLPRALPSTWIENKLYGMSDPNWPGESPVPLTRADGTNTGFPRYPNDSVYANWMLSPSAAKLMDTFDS

IC50 (FLT1) [µM]	IC50 (FLT4) [µM]	IC50 (RET) [µM]	Structure (SMILES)
< 10	< 10	< 10	CC(C)(C)c1cc(NC(=O)Nc2ccc(Oc3ncnc4[nH]ncc34)c(F)c2)no1 [4a-31]
< 10	< 10	< 10	CC(C)(C)c1cc(NC(=O)Nc2ccc(Oc3ncnc4[nH]ncc34)cc2)on1 [4a-25]
< 10	< 10	< 10	O=C(Nc1ccc(Oc2ncnc3[nH]ncc23)cc1)Nc1ccc(Cl)c(C(F)(F)F)c1 [4a-2]

Structure (SMILES)	IC50 (FLT1) [µM]	IC50 (FLT4) [µM]	IC50 (RET) [µM]
O=C(Nc1ccc(Oc2ncnc3[nH]ncc23)cc1)Nc1cccc(C(F)(F)F)c1 [4a-6]	0.005	0.005	0.004
